Laboratory results: paper doi:10.1101/2023.09.07.556657v1 (biorxiv, 2023)

Biological target: T1, Cf-SGBP-CBMxxIV (Christiangramia forsetii, UniProt A0M709)
T1 sequence (A0M709 740-904): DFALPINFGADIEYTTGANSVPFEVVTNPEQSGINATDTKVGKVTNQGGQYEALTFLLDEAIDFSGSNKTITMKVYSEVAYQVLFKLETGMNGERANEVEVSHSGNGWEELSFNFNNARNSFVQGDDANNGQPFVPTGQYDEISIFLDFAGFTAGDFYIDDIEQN
Assay: isothermal titration calorimetry
Type: binding
Details: 293.15 K, pH 7.8, 10 mM MOPS, 100 mM NaCl; single-site model

| Ka | SMILES |
| --- | --- |
| 1.39 (± 0.07) x10^4 | OC[C@H]1O[C@@H](O[C@@H]2[C@@H](O)[C@H](O[C@@H]3[C@@H](O)[C@H](O[C@@H]4[C@@H](O)[C@H](O[C@H]5[C@H](O)[C@@H](CO)OC(O)[C@@H]5O)O[C@H](CO)[C@H]4O)O[C@H](CO)[C@H]3O)O[C@H](CO)[C@H]2O)[C@H](O)[C@@H](O)[C@@H]1O (some centres unmarked) [DP5, laminaripentaose] |
| 1.87 (± 0.17) x10^4 | OC[C@H]1O[C@@H](O[C@@H]2[C@@H](O)[C@H](O[C@@H]3[C@@H](O)[C@H](O[C@@H]4[C@@H](O)[C@H](O[C@@H]5[C@@H](O)[C@H](O[C@@H]6[C@@H](O)[C@H](O[C@H]7[C@H](O)[C@@H](CO)OC(O)[C@@H]7O)O[C@H](CO)[C@H]6O)O[C@H](CO)[C@H]5O)O[C@H](CO)[C@H]4O)O[C@H](CO)[C@H]3O)O[C@H](CO)[C@H]2O)[C@H](O)[C@@H](O)[C@@H]1O (some centres unmarked) [DP7, laminariheptaose] |
